Laboratory results from patent US20230114241A1, “METHODS OF TREATING EPILEPSY USING THE SAME” (Trevena, Inc., priority 2019, published 2023).

How the values were obtained:
[1] = target: T1, human sphingosine-1-phosphate receptor 1 (S1P1) (Homo sapiens, UniProt P21453); assay: β-Arrestin2 recruitment assay (PathHunter), S1P1 CHO-K1 cells; type: cell-based; conditions: for Emax: CHO-K1, β-arrestin2 recruitment, efficacy normalized to maximum efficacy of fingolimod, read-out: hS1P1 B-arrestin2 SPAN; for EC50: β-arrestin2 recruitment, potency, read-out: hS1P1 B-arrestin2 pEC50 (converted)
Procedure: Stable clonal Chinese hamster ovary K1 (CHO-K1) cells co-expressing EA-β-arrestin2 and the human sphingosine-1-phosphate receptor 1 (NM_001400, S1P1) with a C-terminal Prolink™ tag were purchased from DiscoverX corporation (Cat #: 93-0207C2).
Cell lines were cultured in AssayComplete™ Media 6 (DiscoverX Corporation, Cat #: 920018GF2) at 37° C. and 5% CO2 in a humidified CO2 and temperature-controlled incubator. To begin assay plating, cells were washed with Dulbecco's phosphate buffered saline (CellGro, Cat #: 21-031-CV) and lifted from the culturing flask by incubation (37° C., 5 min) with CellStripper (Cellgro, Cat #: 25-056-CI). […] Plated cells were incubated overnight at 37° C. and 5% CO2 in a humidified CO2 and temperature-controlled incubator.
Agonist-promoted β-arrestin2 recruitment to the sphingosine-1-phosphate 1 receptor was determined using the β-arrestin PathHunter® Detection kit (DiscoverX Corporation, Cat #: 93-0001). […] In cells that stably express these fusion proteins, stimulation with a cognate agonist results in the interaction of β-arrestin2 and the Prolink™-tagged GPCR. This allows the complementation of the two β-galactosidase fragments and results in the formation of a functional enzyme with β-galactosidase activity. […] Following a 60 minute incubation at 37° C. and 5% CO2 in a humidified CO2 and temperature-controlled incubator, the components of the β-arrestin PathHunter® Detection kit were added as per the manufacturer's instructions. After an hour incubation at room temperature, plates were analyzed by a BMG PheraStar microplate reader.
These values are normalized to fingolimod, a known agonist of the sphingosine-1-phosphate 1 receptor.
Target sequence in this assay (P21453 whole entry): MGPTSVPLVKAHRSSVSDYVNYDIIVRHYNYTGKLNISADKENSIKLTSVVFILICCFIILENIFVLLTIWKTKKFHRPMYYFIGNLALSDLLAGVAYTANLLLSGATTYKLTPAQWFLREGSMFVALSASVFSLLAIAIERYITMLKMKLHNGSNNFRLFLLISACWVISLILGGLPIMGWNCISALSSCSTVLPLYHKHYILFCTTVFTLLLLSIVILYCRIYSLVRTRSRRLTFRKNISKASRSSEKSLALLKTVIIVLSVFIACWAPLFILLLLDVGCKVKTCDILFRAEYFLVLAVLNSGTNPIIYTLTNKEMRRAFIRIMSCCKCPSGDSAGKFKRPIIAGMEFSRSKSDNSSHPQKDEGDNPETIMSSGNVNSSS
Target sequence in this assay (P32121 whole entry partner): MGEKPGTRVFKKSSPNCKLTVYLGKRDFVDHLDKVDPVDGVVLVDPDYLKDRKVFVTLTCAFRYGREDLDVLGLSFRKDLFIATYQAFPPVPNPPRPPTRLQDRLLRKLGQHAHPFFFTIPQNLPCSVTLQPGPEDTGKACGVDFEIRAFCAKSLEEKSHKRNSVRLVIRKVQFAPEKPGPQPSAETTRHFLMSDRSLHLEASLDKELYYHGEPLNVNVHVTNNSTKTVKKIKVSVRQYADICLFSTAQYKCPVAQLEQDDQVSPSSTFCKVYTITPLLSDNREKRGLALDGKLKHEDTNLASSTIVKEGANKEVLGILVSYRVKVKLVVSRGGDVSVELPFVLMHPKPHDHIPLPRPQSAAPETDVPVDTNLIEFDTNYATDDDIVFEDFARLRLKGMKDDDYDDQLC

[2] = target: T1, human sphingosine-1-phosphate receptor 1 (S1P1); assay: Inhibition of cAMP production (HTRF cAMP HiRange), S1P1 CHO-K1 cells; type: cell-based; conditions: inhibition of cAMP production; for Emax: CHO-K1, efficacy normalized to maximum efficacy of fingolimod, read-out: hS1P1 CAMP SPAN; for EC50: potency, read-out: hS1P1 CAMP pEC50 (converted)
Method in brief: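 Intracellular cAMP changes read by TR-FRET (HTRF HiRange, 1 h room temperature) after 30 min compound exposure at 37 °C. Cells: overnight-plated CHO-K1 stably expressing tagged human S1P1 with EA-β-arrestin2. Responses normalized to fingolimod.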
Target sequence in this assay (P21453 whole entry): as the sequence (P21453 whole entry) above

| Compound | Emax [1] [%] | EC50 [1] [nM] | Emax [2] [%] | EC50 [2] [nM] |
| --- | --- | --- | --- | --- |
| CC(C)C(c1ccccc1)c1noc(-c2ccc3c(c2)nnn3C(C)C)n1 (centres unmarked) [Compound 56, 5-[3-(2-methyl-1-phenyl-propyl)-1,2,4-oxadiazol-5-yl]-1-(propan-2-yl)-1H-1,2,3-benzotriazole] | < 75 | > 10000 | < 75 | > 316 |
| O=C1CCOc2ccc(-c3nc(-c4ccncc4)no3)cc21 [Compound 57, 6-[3-(pyridin-4-yl)-1,2,4-oxadiazol-5-yl]-3,4-dihydro-2H-1-benzopyran-4-one] | < 75 | > 10000 | < 75 | > 316 |
| CCC1(CC)CC(=O)c2cc(-c3nc(-c4ccc(N(C)C)cc4)no3)ccc2O1 [Compound 60, 6-(3-(4-(dimethyl-amino)phenyl)-1,2,4-oxadiazol-5-yl)-2,2-diethylchroman-4-one] | < 75 | > 10000 | < 75 | > 316 |
| CC(C)n1nnc2cc(-c3ncc(-c4ccccc4F)s3)ccc21 [Compound 63, 5-(2-fluorophenyl)-2-(1-isopropyl-1H-benzo[d][1,2,3]triazol-5-yl)thiazole] | < 75 | > 10000 | < 75 | < 316 |
| Cc1cc(C)cc(-c2noc(-c3ccc4c(c3)nnn4C3CCOCC3)n2)c1 [Compound 93, 5-[3-(3,5-dimethyl-phenyl)-1,2,4-oxadiazol-5-yl]-1-(oxan-4-yl)-1H-1,2,3-benzotriazole] | > 75 | > 10000 | < 75 | > 316 |
| FC(F)(F)c1cccc(-c2noc(-c3ccc4c(c3)nnn4C3CCCC3)n2)c1 [Compound 118, 1-cyclopentyl-5-{3-[3-(trifluoromethyl)phenyl]-1,2,4-oxadiazol-5-yl}-1H-1,2,3-benzotriazole] | < 75 | – | < 75 | > 316 |
| COc1ccccc1-c1nnc(-c2ccc3c(c2)nnn3C(C)C)s1 [Compound 144, 5-[5-(2-methoxyphenyl)-1,3,4-thiadiazol-2-yl]-1-(propan-2-yl)-1H-1,2,3-benzotriazole] | < 75 | < 10000 | > 75 | > 316 |
| C=CCNc1ccc(-c2nc(-c3ccc4[nH]nnc4c3)no2)cc1C#N [Compound 145, 5-(3-(1H-benzo[d] [1,2,3]triazol-5-yl)-1,2,4-oxadiazol-5-yl)-2-(allylamino)benzonitrile] | < 75 | < 10000 | > 75 | < 316 |
| O=C1CC2(CCOCC2)Oc2ccc(-c3nc(-c4ccncc4)no3)cc21 [Compound 148, 6-[3-(pyridin-4-yl)-1,2,4-oxadiazol-5-yl]-3,4-dihydrospiro [1-benzopyran-2,4′-oxane]-4-one] | < 75 | > 10000 | < 75 | > 316 |
| CCC1(CC)CC(=O)c2cc(-c3nc(-c4ccc(C(=O)N(C)C)cc4)no3)ccc2O1 [Compound 151, 4-(5-(2,2-diethyl-4-oxochroman-6-yl)-1,2,4-oxadiazol-3-yl)-N,N-dimethylbenzamide] | > 75 | > 10000 | > 75 | > 316 |
| Cc1cnc(-c2noc(-c3ccc4c(c3)nnn4C(C)C)n2)cn1 [Compound 157, 5-[3-(5-methylpyrazin-2-yl)-1,2,4-oxadiazol-5-yl]-1-(propan-2-yl)-1H-1,2,3-benzotriazole] | < 75 | > 10000 | < 75 | > 316 |
| Cc1cncc(-c2nc(-c3ccc4c(c3)nnn4C(C)C)no2)c1 [Compound 159, 3-(1-isopropyl-1H-benzo[d][1,2,3]triazol-5-yl)-5-(5-methylpyridin-3-yl)-1,2,4-oxadiazole] | < 75 | > 10000 | < 75 | > 316 |
| CC(C)c1cc(-c2nc(-c3ccc4c(c3)nnn4C(C)C)no2)ccn1 [Compound 167, 3-(1-isopropyl-1H-benzo[d][1,2,3]triazol-5-yl)-5-(2-isopropyl-pyridin-4-yl)-1,2,4-oxadiazole] | < 75 | > 10000 | < 75 | > 316 |

Results, then the molecule that gave them:

| Emax [1] [%] | EC50 [1] [nM] | Emax [2] [%] | EC50 [2] [nM] | Compound |
| --- | --- | --- | --- | --- |
| > 75 | > 10000 | > 75 | > 316 | CC(C)Oc1ccccc1-c1noc(-c2ccc3c(c2)nnn3C(C)C)n1 [Compound 62, 3-(2-isopropoxyphenyl)-5-(1-isopropyl-1H-benzo[d][1,2,3]triazol-5-yl)-1,2,4-oxadiazole] |
| > 75 | > 10000 | > 75 | < 316 | CC(C)n1nnc2cc(-c3noc(-c4cccc(F)c4)n3)ccc21 [Compound 64, 5-(3-fluorophenyl)-3-(1-isopropyl-benzotriazol-5-yl)-1,2,4-oxadiazole] |
| > 75 | < 10000 | > 75 | < 316 | CC(C)n1nnc2cc(-c3nsc(-c4ccccc4O)n3)ccc21 [Compound 112, 2-{3-[1-(propan-2-yl)-1H-1,2,3-benzotriazol-5-yl]-1,2,4-thiadiazol-5-yl}phenol] |
| < 75 | > 10000 | < 75 | > 316 | c1ccc(-c2noc(-c3ccc4[nH]nnc4c3)n2)cc1 [Compound 113, 5-(3-phenyl-1,2,4-oxadiazol-5-yl)-1H-1,2,3-benzotriazole] |
| < 75 | > 10000 | < 75 | > 316 | Cc1ccccc1C(C)c1noc(-c2ccc3c(c2)nnn3CC(C)C)n1 (centres unmarked) [Compound 154, 5-{3-[1-(2-methyl-phenyl)ethyl]-1,2,4-oxadiazol-5-yl}-1-(2-methylpropyl)-1H-1,2,3-benzotriazole] |
| < 75 | > 10000 | < 75 | > 316 | COc1cc(-c2noc(-c3ccc4c(c3)nnn4C3CC3)n2)ccn1 [Compound 155, 1-cyclopropyl-5-[3-(2-methoxypyridin-4-yl)-1,2,4-oxadiazol-5-yl]-1H-1,2,3-benzotriazole] |
| < 75 | > 10000 | < 75 | > 316 | CCCn1nnc2cc(-c3nc(-c4ccccc4)no3)ccc21 [Compound 160, 5-(3-phenyl-1,2,4-oxadiazol-5-yl)-1-propyl-1H-1,2,3-benzotriazole] |
| > 75 | > 10000 | < 75 | > 316 | COC(=O)CCn1nnc2cc(-c3noc(-c4ccccc4Br)n3)ccc21 [Compound 161, methyl 3-(5-(5-(2-bromophenyl)-1,2,4-oxadiazol-3-yl)-1H-benzo[d][1,2,3]triazol-1-yl)propanoate] |
| > 75 | < 10000 | > 75 | > 316 | Cc1ccccc1-c1nc(-c2ccc3c(c2)nnn3C2CCCC2)no1 [Compound 162, 3-(1-cyclopentyl-1H-benzo[d][1,2,3]triazol-5-yl)-5-(o-tolyl)-1,2,4-oxadiazole] |
| < 75 | > 10000 | < 75 | > 316 | Cc1ccc(-c2noc(-c3ccc4c(c3)nnn4C3CCCC3)n2)cc1 [Compound 164, 1-cyclopentyl-5-[3-(4-methylphenyl)-1,2,4-oxadiazol-5-yl]-1H-1,2,3-benzotriazole] |
| > 75 | > 10000 | > 75 | > 316 | CC(C)n1nnc2cc(-c3nc(-c4cccnc4)no3)ccc21 [Compound 165, 1-(propan-2-yl)-5-[3-(pyridin-3-yl)-1,2,4-oxadiazol-5-yl]-1H-1,2,3-benzotriazole] |
| > 75 | > 10000 | < 75 | > 316 | Cc1ccc(-c2nc(-c3ccc4c(c3)nnn4C(C)C)no2)c(C)c1 [Compound 166, 5-(2,4-dimethylphenyl)-3-(1-isopropyl-1H-benzo[d][1,2,3]triazol-5-yl)-1,2,4-oxadiazole] |
| > 75 | < 10000 | > 75 | < 316 | Cc1ccccc1-c1noc(-c2ccc3c(c2)nnn3C2CC2)n1 [Compound 171, 1-cyclopropyl-5-[3-(2-methylphenyl)-1,2,4-oxadiazol-5-yl]-1H-1,2,3-benzotriazole] |
| > 75 | > 10000 | > 75 | > 316 | CC(C)n1nnc2cc(-c3nc(-c4ccccc4O)no3)ccc21 [Compound 180, 2-(5-(1-isopropyl-1H-benzo[d][1,2,3]triazol-5-yl)-1,2,4-oxadiazol-3-yl)phenol] |
